Earlier results as cited in patent US20220347170A1, “Method of Reducing Brow Ache” (priority 2021, published 2022).

Conditions: aceclidine alone; U.S. Pat. Nos. 9,089,562, 9,833,441 and 9,314,427

In the case of `CC(=O)OC1CN2CCC1CC2` (stereo not shown) [aceclidine], the brow ache is listed as “significant brow ache”.
